Publication PMC8416056, “Aspulvinones Suppress Postprandial Hyperglycemia as Potent α-Glucosidase Inhibitors From Aspergillus terreus ASM-1” (Frontiers in Chemistry, 2021)
Where two headings read alike, the source gives them in different places.

What was measured:
female C57BL/6J mice [1] = assay: Oral sucrose tolerance test; assay type: in vivo; conditions: sucrose 2 g/kg BW; for decrease of the AUC (blood glucose, 0–120 min): versus negative control
Description: (§1) Female C57BL/6J mice, 6 weeks old, weighting 16–20 g, were obtained from the Skbex Biotechenology Company Limited (Henan, China). The animals were housed in Experimental Animal Center of Zhoukou Normal University under 12 h light-dark cycle at controlled temperature (22 ± 1°C), and provided with a standard pellet diet and water ad libitum. The mice were adapted to diet and general conditions of vivarium for 1 week before the experiment. After an 16 h fasting, the mice were divided into three groups randomly (eight mice each group). […] Mice were fasted 16 h and then intragastrically (i.g.) administrated the inhibitors, 15 min later, 2 g/kg BW of sucrose or 2 g/kg BW of maltose solution was given i.g. to the animals. Blood samples were taken from the tail vein at 0, 30, 60, and 120 min after sucrose or maltose loading, and blood glucose was measured with Accu-Chek Active glucometer (Roche, Germany). Area under the curve (AUC) over 0–120 min was calculated by the trapezoidal method. All animals were cared under the frame of the China Council on Animal Care and all procedures were approved by the Health Sciences Animal Welfare Committee of Zhoukou Normal University.

α-glucosidase [2] = conditions: ref Dewi et al., 2014; cited from earlier work
α-glucosidase [3] = biological target: T1, α-glucosidase (Saccharomyces cerevisiae, UniProt P53341); assay: Circular dichroism spectroscopy of α-glucosidase with inhibitor; assay type: binding; set-up: dose or concentration left out as unconfirmed; conditions: after the addition of (molar ratios 20:1 and 40:1), 20°C
T1 construct: purchased
T1 sequence (P53341 whole entry): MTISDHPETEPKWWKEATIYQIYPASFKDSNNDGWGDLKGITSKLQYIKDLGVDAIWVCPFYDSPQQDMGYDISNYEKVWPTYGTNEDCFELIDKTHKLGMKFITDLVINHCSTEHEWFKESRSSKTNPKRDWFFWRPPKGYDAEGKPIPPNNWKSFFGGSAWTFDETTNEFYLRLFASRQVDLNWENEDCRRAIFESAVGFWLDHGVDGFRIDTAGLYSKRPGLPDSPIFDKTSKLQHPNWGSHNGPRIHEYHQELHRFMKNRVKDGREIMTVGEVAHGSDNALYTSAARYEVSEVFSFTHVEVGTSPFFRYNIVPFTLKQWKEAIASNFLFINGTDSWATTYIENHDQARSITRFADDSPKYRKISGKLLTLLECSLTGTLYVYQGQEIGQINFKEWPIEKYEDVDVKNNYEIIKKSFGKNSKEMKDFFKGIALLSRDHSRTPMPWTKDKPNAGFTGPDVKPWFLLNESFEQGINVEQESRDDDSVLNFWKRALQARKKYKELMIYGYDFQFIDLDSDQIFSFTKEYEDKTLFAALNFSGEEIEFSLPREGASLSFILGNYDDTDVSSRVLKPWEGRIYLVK
Description: The CD measurements were performed in a wavelength range of 190–250 nm at a speed of 60 nm/min. All measurements were carried out at 20°C using 1.0 mm path length quartz cuvette and sodium phosphate buffer (pH 6.8) was considered as a blank. […] All the results were expressed as ellipticity in mill degrees.

α-glucosidase [4] = biological target: T1, α-glucosidase; assay: Enzymatic kinetics of α-glucosidase (Lineweaver–Burk, Dixon and secondary plots); assay type: biochemical; conditions: for Inhibition mode: Lineweaver–Burk plots; for KIS: inhibitor binding with enzyme-substrate complex, vertical intercept (1/Vm) versus inhibitor concentration
Description: pNPG with a concentration range of 100–4,000 μM and α-glucosidase were incubated with different concentrations of inhibitor for 10 min, respectively. 20 μl of 1.0 U/ml enzyme solutions were first mixed with 10 μl of different concentrations of inhibitors, then 50 μl PBS solutions were added, and the mixed solutions were incubated at 37°C for 10 min. Subsequently, 20 μl of pNPG solutions (1.25, 2.5, 5, 10 and 20 mM) were added, and the mixed solutions were further incubated at 37°C for 25 min, the absorbance of reaction solution was measured at 405 nm every 3 min. The kinetic parameters, Michaelis–Menten (Km) and maximum velocity (Vmax), were found using Lineweaver–Burk plots to check the mode of α-glucosidase inhibition for compounds 1 and 4. The dissociation constants between inhibitor and enzyme (Ki) were calculated from Dixon plots. Two inhibition constants, KI or KIS, for inhibitor binding with either free or enzyme-substrate complex, were calculated from secondary plots of the slopes of the straight lines ([…]) or vertical intercept (1/Vmax) verse the concentration of inhibitors, respectively ([Jenis et al., 2019]).

α-glucosidase [5] = biological target: T1, α-glucosidase; assay: Fluorescence quenching analysis; assay type: binding; conditions: for Ksv: quenching constant; for Kq: quenching rate constant, same cell as Ksv; for ∆S: van't Hoff, from 20, 31 and 37 °C (one value per inhibitor, repeated in the grid)
Description: α-Glucosidase (1 μM) was mixed with different concentrations of inhibitors (0–15 μM) at 20, 31, and 37°C, respectively, and the fluorescence spectra of mixed solutions were determined after equilibration for 5 min at an excitation wavelength of 250 nm. Both the excitation and emission slits were set at 10 nm. The quenching rate constant (Kq), binding constant (Ka), the number of the binding sites (n), and thermodynamic parameters enthalpy change (ΔH) and entropy change (ΔS) were calculated according to the Stern-Volmer Eq. 2 and the van’t Hoff Eqs 3–5, which were listed as follows ([Xu et al., 2019]): F0/F = 1 + Ksv[Q] = 1 + Kqτ0[Q] (2) log((F0-F)/F) = logKa+ nlogQ (3) lnKa= (-1/T(ΔH/R)) + ΔS/R (4) ΔG = ΔH-TΔS (5) Where F0 and F represent the fluorescence intensities in the absence or presence of inhibitor, [Q] denote the concentration of inhibitor, τ0 is the constant of the lifetime of fluorophore (10^–8 s) and R is the gas constant of 8.31 J/(mol × K).

[6] = biological target: T2, α-Glucosidase (EC:3.2.1.20, MAL12) (Saccharomyces cerevisiae, UniProt P53341); assay: biochemical
T2 construct: purchased
T2 sequence (P53341 whole entry): as above
Description: α-Glucosidase (EC:3.2.1.20, MAL12) from Saccharomyces cerevisiae was dissolved in 0.1 mol/L PBS solutions with a pH of 6.8, and diluted to be a 1.0 U/ml solution. The substrate p-nitrophenyl-[…] (pNPG) was dissolved in PBS to be a 1 mM solution. […] The absorbance of p-nitrophenol was monitored at 405 nm. […] The negative control was performed by adding PBS instead of α-glucosidase, the blank was prepared by adding solvent without tested compounds. The inhibition rate was calculated as Eq. 1: IR% =[(Ac-As)/Ac] × 100% (1) where Ac represents the absorbance of control without sample solution, and As denotes the absorbance of sample.

female C57BL/6J mice [7] = conditions: 25 mg/kg BW i.g.
Description: as §1, with “Area under the curve (AUC) over 0–120 min was calculated by the trapezoidal method.” left out

[8] = inhibition constant, from Dixon plots
[9] = inhibitor binding with free enzyme, slope (Km/Vm) versus inhibitor concentration
[10] = sample concentration which led to 50% enzyme activity loss, pNPG substrate, pH 6.8, 37°C, read-out: IC50

C[C@H]1O[C@H](O[C@H]2[C@H](O)[C@@H](O)[C@@H](O[C@H]3[C@H](O)[C@@H](O)C(O)O[C@@H]3CO)O[C@@H]2CO)[C@H](O)[C@@H](O)[C@@H]1N[C@H]1C=C(CO)[C@@H](O)[C@H](O)[C@H]1O (stereo partly shown) [Acarbose, reference compound]
decrease of the AUC (blood glucose, 0–120 min) (female C57BL/6J mice [1]; 50 mg/kg BW i.g.): 11.8%

O=C1O/C(=C\c2ccc(O)cc2)C(O)=C1c1ccc(O)cc1 [Aspulvinone E]
IC50 (α-glucosidase [2]): 2.7 µM

CC(C)=CCc1cc(/C=C2\OC(=O)C(c3cc4c(c(CC=C(C)C)c3)OC(C)(C)C=C4)=C2O)ccc1O [Compound 1, Aspulvinone V]
change of α-glucosidase CD spectrum (negative peaks at 209 and 222 nm) (α-glucosidase [3]): loss of the α-helix structure
Inhibition mode (α-glucosidase [4]): mixed-type
Ki (α-glucosidase [4]; [8]): 6.6 µM
KIS (α-glucosidase [4]): 8.23 µM
Ki (α-glucosidase [4]; [9]): 3.15 µM
∆G (α-glucosidase [5]; 31 °C): -3.32 kcal/mol
∆G (α-glucosidase [5]; 37 °C): -2.94 kcal/mol
binding constants (Ka), order of magnitude (α-glucosidase [5]; at the three temperatures): ~10^5 L/mol
Kd (α-glucosidase [5]; binding constant, 20 °C, read-out: Ka (converted)): 9.09 µM
Kd (α-glucosidase [5]; binding constant, 31 °C, read-out: Ka (converted)): 3.27 µM
Kd (α-glucosidase [5]; binding constant, 37 °C, read-out: Ka (converted)): 1.79 µM
Ksv (α-glucosidase [5]; 20 °C): 53500 L/mol
Ksv (α-glucosidase [5]; 31 °C): 78700 L/mol
Ksv (α-glucosidase [5]; 37 °C): 58100 L/mol
Kq (α-glucosidase [5]; 20 °C): 5.35e+12 M⁻¹ s⁻¹
Kq (α-glucosidase [5]; 31 °C): 7.87e+12 M⁻¹ s⁻¹
Kq (α-glucosidase [5]; 37 °C): 5.81e+12 M⁻¹ s⁻¹
∆S (α-glucosidase [5]): 148.2 J/mol/K
IC50 [6, 10]: 2.2 ± 0.4 µM

CC(C)=CCc1cc(C2=C(O)C(=Cc3ccc4c(c3)CC(C(C)(C)O)O4)OC2=O)ccc1O (stereo not shown) [Compound 2, Aspulvinone W]
IC50 [6]: 32 ± 5.8 µM

CC1(C)CCc2cc(C3=C(O)C(=Cc4ccc5c(c4)CC(C(C)(C)O)O5)OC3=O)ccc2O1 (stereo not shown) [Compound 3, Aspulvinone X]
IC50 [6]: 38.6 ± 5.2 µM

CC(C)=CCc1cc(/C=C2\OC(=O)C(c3ccc(O)c(CC=C(C)C)c3)=C2O)ccc1O [Compound 4, aspulvinone H]
postprandial blood glucose peak (female C57BL/6J mice [7]; Figure 6C (maltose), versus the negative control group): significant decrease
reduction of the AUC for postprandial plasma glucose in 2 h (female C57BL/6J mice [7]; Figure 6D (maltose 2 g/kg BW), text prints 'sucrose tolerance test'): 19.7%
change of α-glucosidase CD spectrum (negative peaks at 209 and 222 nm) (α-glucosidase [3]): loss of the α-helix structure
Inhibition mode (α-glucosidase [4]): mixed-type
Ki (α-glucosidase [4]; [8]): 6.58 µM
KIS (α-glucosidase [4]): 6.62 µM
Ki (α-glucosidase [4]; [9]): 4.7 µM
∆G (α-glucosidase [5]; 31 °C): -2.99 kcal/mol
∆G (α-glucosidase [5]; 37 °C): -2.37 kcal/mol
Kd (α-glucosidase [5]; Ka, binding constant, 20 °C): 34.5 µM
Kd (α-glucosidase [5]; Ka, binding constant, 31 °C): 12.7 µM
Kd (α-glucosidase [5]; Ka, binding constant, 37 °C): 4.31 µM
Kd (α-glucosidase [5]; binding constants (Ka), order of magnitude, at the three temperatures): ~100 µM
Ksv (α-glucosidase [5]; 20 °C): 56900 L/mol
Ksv (α-glucosidase [5]; 31 °C): 55300 L/mol
Ksv (α-glucosidase [5]; 37 °C): 60200 L/mol
Kq (α-glucosidase [5]; 20 °C): 5.69e+12 M⁻¹ s⁻¹
Kq (α-glucosidase [5]; 31 °C): 5.53e+12 M⁻¹ s⁻¹
Kq (α-glucosidase [5]; 37 °C): 6.02e+12 M⁻¹ s⁻¹
∆S (α-glucosidase [5]): 240.1 J/mol/K
blood glucose rise at 30 and 60 min (female C57BL/6J mice [1]; 25 mg/kg BW i.g., compared to negative control group): significantly suppressed
decrease of the AUC (blood glucose, 0–120 min) (female C57BL/6J mice [1]; 25 mg/kg BW i.g.): 13.2%
IC50 [6, 10]: 4.6 ± 1.3 µM

CC(C)(O)[C@H]1Cc2cc(/C=C3\OC(=O)C(c4ccc5c(c4)C[C@H](C(C)(C)O)O5)=C3O)ccc2O1 [Compound 5, aspulvinone J-CR]
IC50 [6]: 44.3 ± 8.9 µM

CC(C)=CCc1cc(/C=C2\OC(=O)C(c3cc(CC=C(C)C)c(O)c(CC=C(C)C)c3)=C2O)ccc1O [Compound 6, aspulvinone R]
IC50 [6]: 10.8 ± 2.3 µM

O=C1O/C(=C/c2ccc(O)cc2)C(O)=C1c1ccc(O)cc1 [isoaspulvinone E]
IC50 (α-glucosidase [2]): 8.92 µM
